Tests used:
[1] = MS analysis of tissues and urine for 100 parent ion after injection; assay type: in vivo, mouse
From the text: (§1) Whereas fluorophore-tethered probes are useful for detecting and following uptake of tumors on the skin surface in live animals, even with the most sensitive of far red or nIR detectors, due to light scattering, detection of emitted fluorescent light is limited to a depth of few mm of tissue. However, when used in conjunction with live imaging, 3D cryosectioning enables the biodistribution of fluorescent probes to the histological level throughout the body. Following sacrifice the animal was cryopreserved in liquid N2, then longitudinal cryosectioned at 40-μm slices. Each slice was imaged for fluorescence with an mCherry band filter (excitation 550-590 nm, emission 600-670 nm) as well as bright field (all slice image data can be down loaded at https://goo.gl/Z30dXJ). The images were reconstructed to create a 3D fluorescence and bright field images of the entire mouse anatomy (FIG. 4a). This process allowed for the first time a detailed examination of the complete biodistribution of 100 at the histological level in every organ. A control non-treated mouse was also imaged using an EGFP-mCherry dual band filter set. The limits of detection of 100 by fluorescence are estimated to be at <1-2 μmol. In a parallel study, an MS analysis was conducted on specific fluorescent tissues to confirm the presence of 100 parent ion (m/z=660.0 [M+2]2+).

[2] = test system: MDA-MB-468 cells; assay: 100 internalization assay in MDA-MB-468 cells; assay type: cell-based
Protocol: Cells were plated on uncoated 18-mm round coverslips in 12 well plates at 150,000 cells/well and were allowed to adhere overnight. 100, in a stock solution in DMSO, was diluted in serum-free/phenol red-free DMEM. After drug incubation, the cells were washed twice with ice-cold PBS, fixed with 1% PFA in PBS for 10 min, and stained with 5 μg/mL wheat germ agglutinin-488 (WGA-488, Invitrogen, Waltham, Mass.) and either Hoescht or DAPI. The coverslips were washed and mounted onto microscope slides using FluorSave mounting reagent (Millipore, Darmstadt, Germany). Slides were imaged on a Leica SP5 confocal microscope.
(§2) Images were analyzed for fluorescence and puncta using ImageJ software using a non-biased, high-throughput macro. In brief, cells were selected using an expanded selection from the DAPI channel. The regions of interest were then masked, a watershed filter was applied to split adjacent cells into separate cells, and the regions of interest were applied to the 100 channel to measure fluorescence and puncta. High resolution confocal stacks were deconvolved with Hyugen's Deconvolution Software or AiryScan.
(§3) To analyze the internalization of eHsp90 in transformed cells, the 4T1 cell model was utilized.

[3] = test system: MDA-MB-468 flank tumors; assay: Whole mouse 3D cryo-imaging of probe biodistribution, MDA-MB-468 flank xenograft; assay type: in vivo
Protocol: All protocols involving the use of mice were approved beforehand by the IACUC at Duke University and were strictly adhered to throughout the studies. A wild-type 3-month-old male SCID mouse with a right flank xenograft with MDA-MB-468 cells was injected with 25 nmol 100 through the tail vein. Six hours later, the mouse was euthanized, prepared according to the instructions from BioInVision, Inc. (Cleveland, Ohio, USA) and shipped for Cryo-Imaging and reconstruction. An EGFP/mCherry dual band filter set was used for imaging (#59022; Chroma Technology Corporation, Bellows Falls, Vt., USA).
The majority of cells are fully differentiated and not actively dividing, whereas some subpopulations of cells are constantly undergoing division and growth, such as the […] layer lining the intestinal tract. To determine if non-tumor cells express/internalize eHsp90, 3D cyrosectioning of mice bearing MDA-MB-468 flank tumors 6 hours post 100 injection was carried out. Probe uptake into the tumor in the live animal was first confirmed in a Licor instrument.
as §1

[4] = Absorbance and emission maxima of near IR fluorescent probes (Table 1); assay type: physicochemical
[5] = test system: eHsp90; assay: Competition of fluorescent probe binding to eHsp90 on cells by untethered Hsp90 inhibitors; assay type: cell-based; details: for blocking of binding of 100 and HS-27 to eHsp90: untethered Hsp90 inhibitors
Protocol: Cells were plated on uncoated 18-mm round coverslips in 12 well plates at 150,000 cells/well and were allowed to adhere overnight. 100, in a stock solution in DMSO, was diluted in serum-free/phenol red-free DMEM. […] The coverslips were washed and mounted onto microscope slides using FluorSave mounting reagent (Millipore, Darmstadt, Germany). Slides were imaged on a Leica SP5 confocal microscope.
as §2, §3

| Abs. Max [4] | Em. Max [4] | SMILES | blocking of binding of 100 and HS-27 to eHsp90 [5] | also measured |
| --- | --- | --- | --- | --- |
| – | – | Cc1nn(-c2ccc(C(N)=O)c(NCCCOCCOCCOCCOCCOCCCNCc3ccc(C(=C\C=C4\N(CCCCS(=O)(=O)O)c5ccccc5C4(C)C)/C=C/C4=[N+](CCCCS(=O)(=O)[O-])c5ccccc5C4(C)C)cc3)c2)c2c1C(=O)CC(C)(C)C2 [Compound 100, 4-(2-((1E,3Z)-3-(4-(21-((2-carbamoyl-5-(3,6,6-trimethyl-4-oxo-4,5,6,7-tetrahydro-1H-indazol-1-yl)phenyl)amino)-6,9,12,15,18-pentaoxa-2-azahenicosyl)phenyl)-5-((Z)-3,3-dimethyl-1-(4-sulfobutyl)indolin-2-ylidene)penta-1,3-dien-1-yl)-3,3-dimethyl-3H-indol-1-ium-1-yl)butane-1-sulfonate] | – | MS detection of parent ion in intestines ([1]; 6 hr post-drug injection): did not show the presence of the parent 100 ion; concentration of intact parent molecule in tumor ([1]; MS analysis of flank tumor): ~0.325 µM (w.w.); concentration at 6 h ([1]; SCID, mouse, other: injection, MS analysis of urine, 6 hours): ~0.05 µM; MS detection of parent ion in eyes ([1]; mouse, in vivo): did not show evidence of the 100 parent ion; route of elimination ([1]; mouse, in vivo): primarily eliminated intact through the kidney; cell permeability [2]: not cell permeable; clearance from vasculature ([3]; 6 hour time point): cleared from the entire vasculature by the 6 hour time point; probe related fluorescence in major organs (heart, lungs, liver, kidney, spleen, brain, skeletal muscle, stomach, skin, thyroid, prostate, fur) ([3]; 6 hour time point): completely devoid of 100 related fluorescence; probe in gut wall or endothelial lining of upper intestine ([3]; 6 hours post injection, 25 nmol tail vein): no evidence of 100 in the gut wall or endothelial lining; uptake in skeletal structures, bone marrow, spinal and synovial fluid ([3]; 6 hours, confirmed by MS analysis): No uptake; uptake into lymph nodes ([3]; SCID mouse, 6 hours): uptake of 100 into the lymph nodes |
| 643 | 670 | Cc1nn(-c2ccc(C(N)=O)c(NCCCOCCOCCOCCOCCOCCCNC(=O)c3ccc(C(=C\C=C4\N(CCCCS(=O)(=O)O)c5ccccc5C4(C)C)/C=C/C4=[N+](CCCCS(=O)(=O)[O-])c5ccccc5C4(C)C)cc3)c2)c2c1C(=O)CC(C)(C)C2 [Compound 102, 4-(2-((1E,3Z)-3-(4-((19-((2-carbamoyl-5-(3,6,6-trimethyl-4-oxo-4,5,6,7-tetrahydro-1H-indazol-1-yl)phenyl)amino)-4,7,10,13,16-pentaoxanonadecyl)-carbamoyl)phenyl)-5-((E)-3,3-dimethyl-1-(4-sulfobutyl)indolin-2-ylidene)penta-1,3-dien-1-yl)-3,3-dimethyl-3H-indol-1-ium-1-yl)butane-1-sulfonate] | – | – |
| 766 | 796 | Cc1nn(-c2ccc(C(N)=O)c(NCCCOCCOCCOCCOCCOCCCNCc3ccc(C4=C(/C=C/C5=[N+](CCCCS(=O)(=O)[O-])c6ccccc6C5(C)C)CCC/C4=C\C=C4\N(CCCCS(=O)(=O)O)c5ccccc5C4(C)C)cc3)c2)c2c1C(=O)CC(C)(C)C2 [Compound 105, 4-(2-((E)-2-((E)-4′-(21-((2-carbamoyl-5-(3,6,6-trimethyl-4-oxo-4,5,6,7-tetrahydro-1H-indazol-1-yl)phenyl)amino)-6,9,12,15,18-pentaoxa-2-azahenicosyl)-6-(2-((E)-3,3-dimethyl-1-(4-sulfobutyl)indolin-2-ylidene)ethylidene)-3,4,5,6-tetrahydro-[1,1′-biphenyl]-2-yl)vinyl)-3,3-dimethyl-3H-indol-1-ium-1-yl)butane-1-sulfonate] | – | – |
| 766 | 795 | Cc1nn(-c2ccc(C(N)=O)c(NCCCOCCOCCOCCOCCOCCCNC(=O)c3ccc(C4=C(/C=C/C5=[N+](CCCCS(=O)(=O)[O-])c6ccccc6C5(C)C)CCC/C4=C\C=C4\N(CCCCS(=O)(=O)O)c5ccccc5C4(C)C)cc3)c2)c2c1C(=O)CC(C)(C)C2 [Compound 106, 4-(2-((E)-2-((E)-4′-((19-((2-carbamoyl-5-(3,6,6-trimethyl-4-oxo-4,5,6,7-tetrahydro-1H-indazol-1-yl)phenyl)amino)-4,7,10,13,16-pentaoxanonadecyl)carbamoyl)-6-(2-((E)-3,3-dimethyl-1-(4-sulfobutyl)indolin-2-ylidene)ethylidene)-3,4,5,6-tetrahydro-[1,1′-biphenyl]-2-yl)vinyl)-3,3-dimethyl-3H-indol-1-ium-1-yl)butane-1-sulfonate] | – | – |
| 775 | 802 | Cc1nn(-c2ccc(C(N)=O)c(NCCCOCCOCCOCCOCCOCCCNCc3ccc(C4=C(/C=C/C5=[N+](CCCCS(=O)(=O)[O-])c6ccc(S(=O)(=O)O)cc6C5(C)C)CCC/C4=C\C=C4\N(CCCCS(=O)(=O)O)c5ccc(S(=O)(=O)O)cc5C4(C)C)cc3)c2)c2c1C(=O)CC(C)(C)C2 [Compound 108, 4-(2-((E)-2-((E)-4′-(21-((2-carbamoyl-5-(3,6,6-trimethyl-4-oxo-4,5,6,7-tetrahydro-1H-indazol-1-yl)phenyl)amino)-6,9,12,15,18-pentaoxa-2-azahenicosyl)-6-(2-((E)-3,3-dimethyl-5-sulfo-1-(4-sulfobutyl)indolin-2-ylidene)ethylidene)-3,4,5,6-tetrahydro-[1,1′-biphenyl]-2-yl)vinyl)-3,3-dimethyl-5-sulfo-3H-indol-1-ium-1-yl)butane-1-sulfonate] | – | – |
| 803 | 828 | Cc1nn(-c2ccc(C(N)=O)c(NCCCOCCOCCOCCOCCOCCCNCc3ccc(C4=C(/C=C/C5=[N+](CCCCS(=O)(=O)[O-])c6ccc7ccccc7c6C5(C)C)CCC/C4=C\C=C4\N(CCCCS(=O)(=O)O)c5ccc6ccccc6c5C4(C)C)cc3)c2)c2c1C(=O)CC(C)(C)C2 [Compound 111] | – | – |
| 803 | 829 | Cc1nn(-c2ccc(C(N)=O)c(NCCCOCCOCCOCCOCCOCCCNC(=O)c3ccc(C4=C(/C=C/C5=[N+](CCCCS(=O)(=O)[O-])c6ccc7ccccc7c6C5(C)C)CCC/C4=C\C=C4\N(CCCCS(=O)(=O)O)c5ccc6ccccc6c5C4(C)C)cc3)c2)c2c1C(=O)CC(C)(C)C2 [Compound 112] | – | – |
| – | – | CC(C)c1cc(-c2n[nH]c(=O)n2-c2ccc3c(ccn3C)c2)c(O)cc1O [Ganetespib] | blocked | – |
| – | – | CC(C)NCCCn1c(Sc2cc3c(cc2I)OCO3)nc2c(N)ncnc21 [PUH71] | blocked | competition of binding of probe 100 to eHsp90 ([5]; MDA-MB-468 cells, 100 at 25 μM, 45 min, 1 μM HS-10 or 10 μM PUH71): competed |
| – | – | CC1(C)CC(=O)c2c(C(F)(F)F)nn(-c3ccc(C(N)=O)c(N[C@H]4CC[C@H](O)CC4)c3)c2C1 [SNX2112] | blocked | – |
